Patent US10376499B2, “Combination therapy for treatment of resistant bacterial infections” (priority 2014, dated 2019)

Assays:
[1] = test system: A. baumannii; assay: MIC90 of common antibiotics+compound 1, 196 contemporary clinical isolates of A. baumannii (Example 4); settings: B-lactam + Cmpd 1 (4 μg/mL)
[2] = test system: Enterobacter cloacae; assay: MIC, recent Enterobacteriaceae clinical isolates: Enterobacter cloacae (Examples 7, 11); type: cell-based
[3] = test system: Citrobacter spp; assay: MIC, recent Enterobacteriaceae clinical isolates: Citrobacter spp (Examples 7, 11); type: cell-based; settings: Citrobacter spp, N 7
[4] = test system: Enterobacteriaceae; assay: organism not typed; type: cell-based
[5] = test system: A. baumannii; assay: MIC, 20 diverse recent strains of A. baumannii (Example 10); type: cell-based, Acinetobacter baumannii; settings: N 20 A. baumannii strains
[6] = test system: Escherichia coli; assay: MIC, recent Enterobacteriaceae clinical isolates: Escherichia coli (Examples 7, 11); settings: Escherichia coli
[7] = test system: Klebsiella pneumoniae; assay: MIC, recent Enterobacteriaceae clinical isolates: Klebsiella pneumoniae (Examples 7, 11)
[8] = test system: A. baumannii; assay: MIC by broth microdilution (CLSI), panel of 60 A. baumannii clinical isolates (Example 1)

C[C@H]1[C@H](NC(=O)/C(=N\OC(C)(C)C(=O)O)c2csc(N)n2)C(=O)N1S(=O)(=O)O [Aztreonam]
>64 µg/mL: MIC90 [1]

CO/N=C(\C(=O)N[C@@H]1C(=O)N2C(C(=O)[O-])=C(C[N+]3(C)CCCC3)CS[C@H]12)c1csc(N)n1 [Cefepime]
32 µg/mL: MIC90 [1]

CC(C)(O/N=C(\C(=O)N[C@@H]1C(=O)N2C(C(=O)[O-])=C(C[n+]3ccccc3)CS[C@H]12)c1csc(N)n1)C(=O)O [Ceftazidime]
32 µg/mL: MIC90 [1]

C[C@@H](O)[C@H]1C(=O)N2C(C(=O)O)=C(SCCNC=N)C[C@H]12 [Imipenem, (5R,6S)-3-[[2-(formimidoylamino)ethyl]thio]-6-[(R)-1-hydroxyethyl]-7-oxo-1-azabicyclo[3.2.0]hept-2-ene-2-carboxylic acid]
4 µg/mL: MIC90 ([3]; read-out: MIC90) | MIC90 [4]
64 µg/mL: MIC50 [5]
0.25 µg/mL: MIC Min [5] | MIC50 [6] | MIC50 [7]
0.5 µg/mL: MIC50 ([2]; N 10, read-out: MIC50) | MIC50 ([3]; read-out: MIC50) | MIC50 [4] | MIC90 [6]
1 µg/mL: MIC90 ([2]; N 10)
16 µg/mL: MIC90 [1]
> 64 µg/mL: MIC90 [5] | MIC Max [5]
8 µg/mL: MIC90 [7]

CCN1CCN(C(=O)N[C@@H](C(=O)N[C@@H]2C(=O)N3[C@@H]2SC(C)(C)[C@@H]3C(=O)O)c2ccccc2)C(=O)C1=O [Piperacillin]
32 µg/mL: MIC90 [1]

gentamycin
8 µg/mL: MIC ([8]; strain ARC593, OXA-98) | MIC ([8]; strain ARC2674, SHV-5, OXA-113) | MIC ([8]; strain ARC3487, OXA-20, OXA-58, OXA-66) | MIC ([8]; strain ARC5076, TEM-1, OXA-23, OXA-66) | MIC ([8]; strain ARC5079, OXA-72, OXA-65) | MIC ([8]; strain ARC5088, OXA-20, OXA-58, OXA-66)
2 µg/mL: MIC ([8]; strain ARC2598, OXA*, TEM-1, OXA-113) | MIC ([8]; strain ARC3491 (A. baumannii/calcoaceticus complex), OXA-215)
1 µg/mL: MIC ([8]; strain ARC2058, OXA-95) | MIC ([8]; strain ARC3485, OXA-82)
0.125 µg/mL: MIC ([8]; strain ARC5074, GES*, TEM-1, OXA-51)
>32 µg/mL: MIC ([8]; strain ARC2461, OXA-66, TEM-1) | MIC ([8]; strain ARC2462, TEM-1, OXA-66) | MIC ([8]; strain ARC2635, OXA-65, OXA-40, TEM-1) | MIC ([8]; strain ARC2636, OXA-65, OXA-40, TEM-1) | MIC ([8]; strain ARC2675, SHV-5, OXA-113) | MIC ([8]; strain ARC2681, OXA-40, TEM-1, OXA-132) | MIC ([8]; strain ARC2682, SHV-5, OXA-113) | MIC ([8]; strain ARC2778, OXA-40, TEM-1, OXA-65) | MIC ([8]; strain ARC2779 (A. baumannii/calcoaceticus complex), OXA-2, VIM-2) | MIC ([8]; strain ARC2780 (A. baumannii/calcoaceticus complex), OXA*, OXA-2, IMP-1) | MIC ([8]; strain ARC2782, OXA-66, OXA-23, TEM-1, PER-1) | MIC ([8]; strain ARC3484, TEM-1, OXA-23, OXA-64) | MIC ([8]; strain ARC3486, OXA-72, OXA-66, TEM-1) | MIC ([8]; strain ARC3488, OXA*, OXA-68) | MIC ([8]; strain ARC3489, OXA*, OXA-68) | MIC ([8]; strain ARC3492, OXA-40, OXA-132, TEM-1) | MIC ([8]; strain ARC3493, OXA-40, OXA-66) | MIC ([8]; strain ARC3495, OXA-40, OXA-109) | MIC ([8]; strain ARC3513, TEM-1, OXA-23, OXA-65) | MIC ([8]; strain ARC3658, OXA-66, PER-1, TEM-1, OXA-23) | MIC ([8]; strain ARC3659, OXA-23, OXA*) | MIC ([8]; strain ARC3882, OXA-23, NDM-1, OXA-10*) | MIC ([8]; strain ARC5075, SHV-5, OXA-113) | MIC ([8]; strain ARC5077, OXA*, OXA-72) | MIC ([8]; strain ARC5080, OXA-71, OXA-40) | MIC ([8]; strain ARC5083, OXA-66, OXA-23) | MIC ([8]; strain ARC5084, IMP-4(B), OXA-58, OXA-65) | MIC ([8]; strain ARC5085, OXA*, TEM-1) | MIC ([8]; strain ARC5086, OXA*, TEM-1, OXA-72, OXA-66) | MIC ([8]; strain ARC5087, OXA-66, OXA-23) | MIC ([8]; strain ARC5089, PER*, TEM-1, OXA-23, OXA-66) | MIC ([8]; strain ARC5091, OXA-82, OXA-23) | MIC ([8]; strain ARC5092, OXA-23, OXA-64)
4 µg/mL: MIC ([8]; strain ARC3515, OXA-64, OXA-58)
0.25 µg/mL: MIC ([8]; strain ARC3494, OXA-65) | MIC ([8]; strain ARC3657, OXA-130) | MIC ([8]; strain ARC5081, OXA-94, OXA-23)
0.5 µg/mL: MIC ([8]; strain ARC5073, OXA-23, TEM-1, OXA-64, PER-1) | MIC ([8]; strain ARC5082, OXA-66, OXA-23)
16 µg/mL: MIC ([8]; strain ARC2777, OXA-172, TEM-1) | MIC ([8]; strain ARC2788, OXA-65, TEM-1) | MIC ([8]; strain ARC3490, TEM-1+, PSE-2, OXA-69)
